From patent US6562785B1, “Method for overcoming bacterial antibiotic resistance” (priority 1999, dated 2003)
≈ marks a conversion by molar mass, not a printed value.

Columns and labels:
[1] = system: Staphylococcus aureus (ATCC 29213) and Micrococcus luteus; assay: Membrane permeability by TO-PRO-3 staining, flow cytometry; type: cell-based; settings: for bacteria stained by TO-PRO-3: 4 hours exposure to 4 μg/ml
Procedure: (§1) Flow cytometric studies were performed using a laboratory-built dual laser instrument optimized for bacterial analysis. DiOC2(3) was excited at 488 nm by a beam from an argon ion laser; its green fluorescence was detected through a 530 nm, 20 nm bandwidth bandpass filter, and its red fluorescence was detected through a 610 nm, 19 nm bandpass filter. TO-PRO-3™ was excited at 633 nm by a beam from a helium-neon laser, and its fluorescence was detected through a 695 nm long pass filter. Light scattered at small angles to the 488 nm beam (forward scatter) was used as the trigger signal. Sheath flow rate was 10 ml/min; sample analysis rate was kept below 1,000 events/second. The signal pulse amplitudes were captured by high-precision peak detectors, and digitized using an Analogic HSDAS-16 16-bit data acquisition system in a Pentium-class personal computer. Software was used to perform logarithmic conversion on all of the parameters, which were represented on a 256-channel, 4-decade logarithmic scale.
(§2) Staphylococcus aureus (ATCC 29213) and Micrococcus luteus were grown overnight in trypticase soy broth. Stock solutions of antibiotics were made according to Anhalt & Washington (1991)(Balows, A. et al, (eds) American Society for Microbiology, Washington, 1991, pp. 1199-200). Antibiotics were diluted to the appropriate concentration in 1 ml of Mueller-Hinton broth (Gibco, Gaithersburg, Md.), and filtered though a 0.22 μm filter (Gelman Sciences, Ann Arbor, Mich.). MIC was defined as the minimum concentration of antibiotic that caused no growth after 24 hours in Mueller-Hinton broth.
(§3) Bacteria were added to an antibiotic solution at a concentration of 5.5×10^5/ml and incubated for the appropriate amount of time at 37 degrees C. while shaking. At each time point, a […] aliquot was removed and 30 μM DiOC2(3) and 100 nM TO-PRO-3™ were added simultaneously. The bacteria were allowed to incubate with the dye for 4 minutes prior to flow cytometric analysis. A second […] aliquot was treated identically, except that CCCP (final concentration 15 μM) was added to electrically depolarize the bacteria (i.e., to reduce membrane potential to zero).
(§4) Membrane potential was determined as a ratio of red to green DiOC2(3) fluorescence, providing a cell size-independent measure of MP. To measure membrane permeability, 100 nM TO-PRO-3™ was used in conjunction with the MP dye, DiOC2(3). […] Cells killed by heat exposure (100 degrees C. for 10 minutes) were used as positive controls for TO-PRO-3™ staining.
Effects of amoxicillin (MIC 2 μg/ml) were strongly concentration-dependent. […] Changes in permeability could be observed 45 minutes after antibiotic addition; however, the variance of the TO-PRO-3™ fluorescence distribution was quite large, due primarily to the large variance in size resulting from drug administration. The raw TO-PRO-3™ fluorescence data was corrected for size variation by calculating a quantity proportional to the logarithm of the ratio of TO-PRO-3™ fluorescence to green DiOC2(3) fluorescence, which is known to be proportional to size; the logarithm of green fluorescence was subtracted from the logarithm of TO-PRO-3™ fluorescence, and a constant was added to keep the values on scale. This allowed cells which had become permeable to TO-PRO-3™ to be visualized as a discrete population. Thus, when the size of the bacteria is altered by the permeabilizing agent, such as β-lactam antibiotics used at concentrations below MIC, correction for change in cell volume is important in making permeability measurements. […] Resumption of bacterial growth was coincident with this reversion to a TO-PRO-3™-impermeable state, which occurred after 3 hours in the presence of 0.25 μg/ml amoxicillin and after 4 hours in the presence of 0.5 μg/ml.

[2] = system: Staphylococcus aureus (ATCC 29213) and Micrococcus luteus; assay: Membrane potential by ratio of red to green DiOC2(3) fluorescence, flow cytometry; type: cell-based
Procedure: as §1, §2, §3, §4

[3] = system: Staphylococcus aureus (ATCC 29213) and Micrococcus luteus; assay: MIC: minimum antibiotic concentration causing no growth after 24 hours in Mueller-Hinton broth; type: cell-based; settings: ATCC29213
Procedure: as §2, with “Anhalt” left out

[4] = even at high concentrations; cited from earlier work
[5] = system: Staphylococcus aureus (ATCC 29213) and Micrococcus luteus; assay: Bacterial growth and size (bead-referenced counts, forward scatter, microscopy); type: cell-based
Procedure: as §2
Bacteria were added to an antibiotic solution at a concentration of 5.5×10^5/ml and incubated for the appropriate amount of time at 37 degrees C. while shaking. […]
Bacteria were counted by adding […] sky blue beads (Spherotech, Libertyville, Ill.) to the cell suspension at a known concentration, determined by counting on a haemocytometer. […] Beads were diluted 1:100 into the bacterial sample and could be identified and counted based on their intense fluorescence (excitation at 633 nm; emission above 695 nm). The volume of sample analyzed in any given aliquot was calculated from the number of beads measured; dividing the number of bacteria by this volume yielded the concentration of bacteria in the aliquot.

[6] = system: gram negative organisms; settings: concentrations up to 10 times MIC; cited from earlier work

## CC[C@H]1OC(=O)[C@H](C)[C@@H](O[C@H]2C[C@@](C)(OC)[C@@H](O)[C@H](C)O2)[C@H](C)[C@@H](O[C@@H]2O[C@H](C)C[C@H](N(C)C)[C@H]2O)[C@](C)(O)C[C@@H](C)C(=O)[C@H](C)[C@@H](O)[C@]1(C)O [erythromycin]
[1]
  bacteria stained by TO-PRO-3: 20%
[1]; concentrations below 1 μg/ml
  permeability changes: did not cause any permeability changes
[2]; 4 μg/ml, after 4 hours
  MP reduced to: −50 mV
[2]; dependence on concentration and time
  depolarization: concentration- and time-dependent depolarizations
[3]
  MIC: 4 µg/mL (≈ 5.45 µM)

## O=C(N[C@H](CO)[C@H](O)c1ccc([N+](=O)[O-])cc1)C(Cl)Cl [chloramphenicol]
[1]; 4 μg/ml, after 4 hours
  changes in permeability: no changes
[2]; 4 μg/ml, after 4 hours
  changes in MP: no changes
[4]
  changes in permeability (Mortimer et al.): does not cause changes in permeability
[5]; 4 μg/ml
  bacterial growth: completely prevented bacterial growth

## CN(C)[C@@H]1C(O)=C(C(N)=O)C(=O)[C@@]2(O)C(O)=C3C(=O)c4c(O)cccc4[C@@](C)(O)[C@H]3C[C@@H]12 [Tetracycline, tetracycline]
[1]
  bacteria stained by TO-PRO-3: 50%
[2]; 4 μg/ml, after 4 hours
  MP reduced to: −50 mV
[3]
  MIC: 0.25 µg/mL (≈ 0.563 µM)

## CC1(C)S[C@@H]2[C@H](NC(=O)[C@H](N)c3ccc(O)cc3)C(=O)N2[C@H]1C(=O)O [amoxicillin]
[1]; 0.25 μg/ml
  time to reversion to TO-PRO-3-impermeable state, coincident with resumption of bacterial growth: 3 h
[1]; 0.5 μg/ml
  time to reversion to TO-PRO-3-impermeable state, coincident with resumption of bacterial growth: 4 h
[1]; 4 μg/ml versus 1 μg/ml
  percentage of cells permeable to TO-PRO-3, 4 μg/ml compared with 1 μg/ml: lower percentages of cells permeable to TO-PRO-3™
[1]; 0.25 or 0.5 μg/ml, after four hours
  membrane integrity after four hours: the majority of the cells regained their membrane integrity
[1]; after 2 hours at either 0.25 or 0.5 μg/ml
  TO-PRO-3 permeable population and its MP: a population that was permeable to TO-PRO-3™, but that maintained a normal MP, was detected
[1]; concentrations below MIC
  time after antibiotic addition at which changes in permeability could be observed: 45 min
[2]; concentrations above MIC
  dominant characteristic of treated cells (MP): loss of MP
[3]
  MIC: 2 µg/mL (≈ 5.47 µM)
[5]; concentrations below MIC, microscopy and forward scatter
  bacterial size: drastically increased in size

## [H]/N=C(/N)N[C@H]1[C@H](O)[C@@H](O)[C@H](O[C@@H]2O[C@@H](C)[C@](O)(C=O)[C@H]2O[C@@H]2O[C@@H](CO)[C@H](O)[C@@H](O)[C@@H]2NC)[C@@H](N/C(N)=N\[H])[C@@H]1O [Streptomycin, streptomycin]
[1]; 5 μg/ml, 1 hour to 4 hours
  permeability changes: No permeability changes were seen
[2]; 5 μg/ml, by 1 hour, remained reduced at 105 minutes and 4 hours
  effect on MP: reduced MP
[2]; organisms preincubated with 1 mg/ml erythromycin for 30 minutes
  effect on MP after erythromycin preincubation: abolished

## gentamicin
[6]
  changes in permeability to nucleic acid stains: no
